According to ChEMBL document CHEMBL5236625, “New class of fused [3,2-b][1,2,4]triazolothiazoles for targeting glioma in vitro” (Bioorg Med Chem Lett, 2023):
Active and inactive are the calls of the source. No cut-off for these calls is given here.

Tests used:
C6 [1] = assay: Cytotoxicity against rat C6 cells assessed as cell viability measured upto 108 hrs by MTT assay; assay type: functional, cell-based; conditions: C6, 108 h
LN-18 [2] = assay: Cytotoxicity against human LN-18 cells assessed as cell viability measured upto 108 hrs by MTT assay; assay type: functional, cell-based; conditions: LN-18, 108 h
[3] = Solubility in DMSO; assay type: physicochemical
[4] = target: T1, Serine/threonine-protein kinase AKT (Homo sapiens) (UniProt P31751+Q9Y243+P31749); assay: Inhibition of AKT phosphorylation at Ser473 in human LN-18 cells by Western blot analysis; assay type: cell-based; conditions: dose 10-100 µM
C6 [5] = assay: Inhibition of colony formation in rat C6 cells at 10 to 100 uM measured after 48 hrs by clonogenic assay; assay type: functional, cell-based; conditions: dose 10-100 µM
LN-18 [6] = assay: Induction of apoptosis in human LN-18 cells assessed as increase in Bax expression at 10 to 100 uM by Western blot analysis; assay type: functional, cell-based; conditions: dose 10-100 µM
[7] = target: T1, Serine/threonine-protein kinase AKT (Homo sapiens); assay: Inhibition of AKT phosphorylation at Thr308 in human LN-18 cells by Western blot analysis; assay type: cell-based; conditions: dose 10-100 µM
LN-18 [8] = assay: Induction of apoptosis in human LN-18 cells assessed as reduction in IRE1 expression at 10 to 100 uM by Western blot analysis; assay type: functional, cell-based; conditions: dose 10-100 µM
C6 [9] = assay: Induction of apoptosis in rat C6 cells assessed as cell population in […] at 50 to 100 uM (reference value: 2 to 7%); assay type: functional; conditions: dose 50-100 µM
LN-18 [10] = assay: Inhibition of colony formation in human LN-18 cells at 10 to 100 uM measured after 48 hrs by clonogenic assay; assay type: functional, cell-based; conditions: dose 10-100 µM
C6 [11] = assay: Induction of apoptosis in rat C6 cells assessed as reduction in IRE1 expression at 10 to 100 uM by Western blot analysis; assay type: functional, cell-based; conditions: dose 10-100 µM
LN-18 [12] = assay: Inhibition of ERK phosphorylation in human LN-18 cells by Western blot analysis; assay type: cell-based; conditions: dose 10-100 µM
C6 [13] = assay: Induction of apoptosis in rat C6 cells assessed as reduction in XBP1 expression at 10 to 100 uM by Western blot analysis; assay type: functional, cell-based; conditions: dose 10-100 µM
C6 [14] = assay: Induction of cell cycle arrest in rat C6 cells assessed as cell population in sub-G1 phase at 10 uM (reference value: 60%); assay type: functional
C6 [15] = assay: Antimigratory activity against rat C6 cells assessed as rate of cell migration measured at 100 uM by wound healing assay (reference value: 21.95 um/hr); assay type: functional
C6 [16] = assay: Induction of apoptosis in rat C6 cells assessed as increase in Bax expression at 10 to 100 uM by Western blot analysis; assay type: functional, cell-based; conditions: dose 10-100 µM
LN-18 [17] = assay: Induction of apoptosis in human LN-18 cells assessed as cell population in […] at 50 to 100 uM (reference value: 2 to 7%); assay type: functional; conditions: dose 50-100 µM
LN-18 [18] = assay: Induction of cell cycle arrest in human LN-18 cells assessed as cell population in sub-G1 phase at 10 uM (reference value: 44%); assay type: functional
Rattus norvegicus = organism: Rattus norvegicus; assay: Inhibition of ERK phosphorylation in rat C6 cells by Western blot analysis; assay type: cell-based; conditions: dose 50-100 µM
C6 [19] = assay: Inhibition of AKT phosphorylation at Ser473 in rat C6 cells by Western blot analysis; assay type: cell-based; conditions: dose 10-100 µM
C6 [20] = assay: Inhibition of AKT phosphorylation at Thr308 in rat C6 cells by Western blot analysis; assay type: cell-based; conditions: dose 10-100 µM
LN-18 [21] = assay: Antimigratory activity against human LN-18 cells assessed as rate of cell migration measured at 100 uM by wound healing assay (reference value: 24.46 um/hr); assay type: functional
LN-18 [22] = assay: Induction of apoptosis in human LN-18 cells assessed as reduction in XBP1 expression at 10 to 100 uM by Western blot analysis; assay type: functional, cell-based; conditions: dose 10-100 µM
LN-18 [23] = assay: Induction of cell cycle arrest in human LN-18 cells assessed as cell population in G2-M phase at 10 uM (reference value: 39.4%); assay type: functional
C6 [24] = assay: Induction of cell cycle arrest in rat C6 cells assessed as cell population in G2-M phase at 10 uM (reference value: 19.3%); assay type: functional

T1 sequence (P31749 whole entry, looked up): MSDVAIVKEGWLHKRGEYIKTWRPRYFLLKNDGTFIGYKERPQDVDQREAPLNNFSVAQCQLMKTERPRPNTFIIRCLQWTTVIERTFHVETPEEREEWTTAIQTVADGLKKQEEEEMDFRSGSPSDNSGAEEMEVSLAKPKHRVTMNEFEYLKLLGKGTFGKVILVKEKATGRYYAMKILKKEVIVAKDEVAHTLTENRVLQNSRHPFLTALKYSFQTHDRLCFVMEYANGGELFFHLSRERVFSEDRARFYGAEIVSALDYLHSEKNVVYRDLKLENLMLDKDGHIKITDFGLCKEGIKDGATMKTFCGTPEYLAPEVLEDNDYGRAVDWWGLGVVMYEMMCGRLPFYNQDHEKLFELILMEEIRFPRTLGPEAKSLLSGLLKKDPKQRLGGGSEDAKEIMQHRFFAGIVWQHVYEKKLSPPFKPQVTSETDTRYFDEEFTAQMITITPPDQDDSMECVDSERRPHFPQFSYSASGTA
T1 sequence (P31751 whole entry, looked up): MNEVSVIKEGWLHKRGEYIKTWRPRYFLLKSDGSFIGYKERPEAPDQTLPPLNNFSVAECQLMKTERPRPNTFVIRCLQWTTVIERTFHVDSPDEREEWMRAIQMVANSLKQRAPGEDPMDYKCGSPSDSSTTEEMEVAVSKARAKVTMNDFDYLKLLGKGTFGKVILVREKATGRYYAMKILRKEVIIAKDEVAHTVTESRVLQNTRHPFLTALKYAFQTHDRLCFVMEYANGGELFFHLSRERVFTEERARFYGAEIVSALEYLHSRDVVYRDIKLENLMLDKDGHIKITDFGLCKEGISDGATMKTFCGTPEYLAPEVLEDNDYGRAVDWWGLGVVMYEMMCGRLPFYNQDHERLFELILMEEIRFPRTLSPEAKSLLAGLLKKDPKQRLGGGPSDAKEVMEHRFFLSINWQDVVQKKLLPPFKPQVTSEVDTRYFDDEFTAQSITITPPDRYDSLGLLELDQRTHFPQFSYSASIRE
T1 sequence (Q9Y243 whole entry, looked up): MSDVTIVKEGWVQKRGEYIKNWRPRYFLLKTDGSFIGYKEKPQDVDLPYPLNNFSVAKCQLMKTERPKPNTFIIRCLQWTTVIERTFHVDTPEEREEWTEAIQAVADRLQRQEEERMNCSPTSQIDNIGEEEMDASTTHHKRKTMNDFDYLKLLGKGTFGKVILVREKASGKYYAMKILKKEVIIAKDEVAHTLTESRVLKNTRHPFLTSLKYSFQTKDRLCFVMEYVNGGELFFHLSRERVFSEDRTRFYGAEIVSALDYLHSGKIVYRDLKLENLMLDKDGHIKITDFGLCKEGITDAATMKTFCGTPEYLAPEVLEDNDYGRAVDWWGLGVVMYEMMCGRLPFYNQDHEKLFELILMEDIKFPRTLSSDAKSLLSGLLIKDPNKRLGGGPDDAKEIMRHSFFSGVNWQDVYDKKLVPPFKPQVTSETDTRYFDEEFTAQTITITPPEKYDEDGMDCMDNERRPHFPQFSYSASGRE

solubility [3]	inhibition [4]	inhibition [7]	Structure (SMILES)	IC50 (C6 [1]) [µM]	IC50 (LN-18 [2]) [µM]	inhibition (C6 [5])	Activity (LN-18 [6])	Activity (LN-18 [8])	Activity (C6 [9]) [%]	inhibition (LN-18 [10])	Activity (C6 [11])	inhibition (LN-18 [12])	Activity (C6 [13])	Activity (C6 [15]) [um/hr]	Activity (C6 [16])	Activity (LN-18 [17]) [%]	inhibition (Rattus norvegicus)	inhibition (C6 [19])	inhibition (C6 [20])	Activity (LN-18 [21]) [um/hr]	other results
Insoluble			COc1ccc(-c2csc3nc(/N=C/c4ccc(Cl)cc4Cl)nn23)cc1	7.56	21.5																
	Dose-Dependent Effect	Dose-Dependent Effect	O=[N+]([O-])c1ccc(-c2csc3nc(/N=C/c4ccc(Cl)cc4)nn23)cc1	8.74	12.6	Active	Active	Active	35	Active	Active	Dose-Dependent Effect	Active	13.6	Active	35	Dose-Dependent Effect	Dose-Dependent Effect	Dose-Dependent Effect	15.04	Activity (C6 [14]): 66.5%; Activity (LN-18 [18]): 50%; Activity (LN-18 [22]): Active
Insoluble			O=C1c2ccccc2C(=O)N1c1nc2scc(-c3ccc(-c4ccccc4)cc3)n2n1	5.79	8.97																
	Dose-Dependent Effect	Dose-Dependent Effect	O=C1c2ccccc2C(=O)N1c1nc2scc(-c3ccc(Br)cc3)n2n1	8.09	12.7	Active	Active	Active	47	Active	Active	Dose-Dependent Effect	Active	8.96	Active	47	Dose-Dependent Effect	Dose-Dependent Effect	Dose-Dependent Effect	14.36	Activity (LN-18 [23]): 54.9%; Activity (C6 [24]): 31.9%; Activity (LN-18 [22]): Active
